Earlier results as cited in article PMC3272643 (Organic process research & development, 2012).

Test system: peptide-cleaving proteases

Substance: gramicidin S
- resistance to peptide-cleaving proteases: significant resistance to peptide-cleaving proteases
